Values quoted from earlier work, collected in patent US20110245279A1, “PREDICTIVE MARKER FOR EGFR INHIBITOR TREATMENT” (priority 2007, published 2011).
Where two headings read alike, the source gives them in different places.

Tests used:
[1] = test system: NSCLC; conditions: single agent; NSCLC patients for whom standard therapy for advanced disease has failed
[2] = patients with cancer receiving the 150 mg/day dose
[3] = test system: NSCLC
[4] = test system: RARRES1 gene
[5] = randomized phase III trial, second line therapy of NSCLC

## C#Cc1cccc(Nc2ncnc3cc(OCCOC)c(OCCOC)cc23)c1 [Tarceva, erlotinib]
[1]
  survival: significantly prolongs and improves the survival
[2]
  drug levels in plasma: > 500 ng/mL

## CC(=O)O[C@@]12CO[C@@H]1C[C@H](O)[C@@]1(C)C(=O)[C@H](O)C3=C(C)[C@@H](OC(=O)[C@H](O)[C@@H](NC(=O)OC(C)(C)C)c4ccccc4)C[C@@](O)([C@@H](OC(=O)c4ccccc4)[C@H]21)C3(C)C [docetaxel]
[3]; second line vs best supportive care, after cisplatin-based first-line regimens had failed
  survival: improved survival

## Nc1nc2[nH]cc(CCc3ccc(C(=O)N[C@@H](CCC(=O)O)C(=O)O)cc3)c2c(=O)[nH]1 [pemetrexed]
[3]; [5]
  efficacy compared with docetaxel: clinically equivalent efficacy
  side effects compared with docetaxel: significantly fewer side effects

## CCOC(=O)c1ccc(C#Cc2ccc3c(c2)C(C)(C)CCS3)nc1 [tazarotene]
[4]
  expression of RARRES1 gene: up regulated
